PubChem BioAssay AID743095 (The Scripps Research Institute Molecular Screening Center, 2013)
pIC50: −log10 of the molar value. Calls of active or inactive are those of the source. The rule behind the calls is not given here.

Molecular target: Galanin receptor type 3 (Homo sapiens) (UniProt O60755)
Assay: GalR3 antagonist potency curves, late-stage follow-up, cell-based, fluorescence, dose response (AID 743095)
Settings: GalR3 cell line, fluorescence antagonist assay

Row | SMILES | pIC50 | IC50
1 | Cc1nc2ccccc2n1Cc1ccc(Cl)cc1 | 5.90 | –
2 | COc1ccc(NS(=O)(=O)c2ccc(NC(=O)c3ccc(CN4CCOCC4)cc3)cc2)cc1 | 5.52 | –
3 | NC(=O)c1c(-c2ccc(Cl)cc2Cl)csc1NC(=O)Cc1ccccc1 | 5.63 | –
4 | Cc1ccccc1Cn1c(C)nc2ccccc21 | 5.47 | –
5 | COc1ccc(-n2c(C)cc(C(=O)COC(=O)Cn3cnc4ccccc43)c2C)cc1 | – | > 29900 nM (inactive)
6 | CCCCCn1c(=O)[nH]c2cc(C(=O)N3CCN(Cc4ccc5c(c4)OCO5)CC3)ccc2c1=O | 6.84 | –
7 | CC(C)(C)CN1CCN(Cc2nc(-c3ccc(F)cc3)cs2)CC1CCO (configuration not stated) | 5.49 | –
8 | COc1ccc(C(=O)CSc2nnc(Cn3cnc4ccccc43)o2)cc1 | 5.50 | –
9 | Cc1cc(CSc2ccccc2)ccc1NC(=O)c1ccc(CN2CCOCC2)cc1 | 6.28 | –
10 | CNc1ccccc1C(C)(C)c1cc(-c2ccc(F)cc2)no1 | 5.42 | –
11 | CC(=O)c1cn(CC(=O)NCCc2c[nH]c3ccccc23)c2ccccc12 | 5.38 | –
12 | O=C(Cc1ccc(Cl)cc1Cl)Nc1ccncc1Cl | 5.41 | –
13 | Fc1ccc(NC(=S)N2CCCN(c3ccc(C(F)(F)F)cn3)CC2)c(F)c1 | 6.40 | –
14 | Cc1ccccc1-c1cc(C(=O)Nc2sc(C(=O)OC(C)C)c(C)c2C#N)c2ccccc2n1 | 5.95 | –
15 | CCOc1nc(C#N)nc(N2CCCCC2)n1 | 5.55 | –
16 | CC(=O)c1c(C)[nH]c(C(=O)COc2cc(C)ccc2C(C)C)c1C | 5.45 | –
17 | Cc1[nH]c(=O)c(C#N)cc1-c1ccccc1 | – | inactive
18 | S=C(NCCc1ccccc1)Nc1cccc2cnccc12 | 5.58 | –
19 | Nc1nonc1-n1nnc(C(=O)N/N=C/c2cc(Br)ccc2O)c1CSC1=NCCS1 | 5.20 | –

Row | SMILES | pIC50 | IC50
20 | CC1CC(=O)NN=C1c1ccc(N)c([N+](=O)[O-])c1 (configuration not stated) | 6.22 | –
21 | Cc1cccc(Cl)c1NC(=O)N1CCCN(c2nc3ccc(Cl)cc3s2)CC1 | 5.71 | –
22 | O=C(CSc1nnnn1C1CC2CCC1C2)Nc1ccnc2ccccc12 (configuration not stated) | 6.85 | –
23 | COc1ccc(CN2CCC(C(=O)Nc3ccc(Oc4ccccc4)nc3)CC2)cc1F | 5.16 | –
24 | COc1ccc(CN(C)c2ccc(S(=O)(=O)N3CCN(C)CC3)cc2[N+](=O)[O-])cc1OC | 6.35 | –
25 | CSc1ccc(C(=O)C2CCCN(C(=O)CCc3c(C)nn(C)c3C)C2)cc1 (configuration not stated) | 5.38 | –
26 | CC(=O)c1ccc(N2CCN(C(=S)Nc3ccc(Oc4ccccc4)cc3)CC2)cc1 | 5.91 | –
27 | COc1ccc(CCNc2ncnc3sccc23)cc1OC | 6.36 | –
28 | CCCOC(=O)c1ccc(OCC(O)Cn2c(C)nc3ccccc32)cc1 (configuration not stated) | 5.49 | –
29 | COc1ccc(OC)c(CCNC(=O)Cn2nc(C)c3c(C)n(-c4ccc(C)cc4)nc3c2=O)c1 | 5.42 | –
30 | Cc1oc(-c2ccc(Cl)cc2)nc1CSCC(=O)NC1CCN(Cc2ccccc2)CC1 | 5.88 | –
31 | COc1cccc2[nH]c3c(N4CCC(C)CC4)ncnc3c12 | 5.56 | –
32 | Cn1nc(C(C)(C)C)cc1C(=O)NCc1ccc(N2CCCC2=O)cc1 | 5.28 | –
33 | CCOC(=O)Cc1csc(NC(=O)c2cc(=O)c3ccccc3o2)n1 | 5.24 | –
34 | Cc1ccc(Oc2ccc(OCC(=O)Nc3ccncc3)cc2)cc1 | 6.37 | –
35 | O=C(CSc1nnc(Cn2nnc3ccccc32)o1)N(Cc1ccc(F)cc1)c1ccccc1 | 5.91 | –
36 | Cc1nn(C)c(Cl)c1NC(=O)OCc1ccc(Cl)cc1Cl | 5.38 | –
37 | N#Cc1cc(-c2ccccc2)oc1NC(=O)c1ccco1 | – | inactive
38 | Cc1cc(C(=O)CSc2nc(N)cc(=O)[nH]2)c(C)n1-c1ccc(OC(F)F)cc1 | 5.87 | –

Row | SMILES | pIC50 | IC50
39 | CCOc1cc(S(=O)(=O)NCc2ccncc2)ccc1Cl | 6.57 | –
40 | CCOC(=O)c1[nH]c2ccc(OC)cc2c1NS(=O)(=O)c1ccc(Cl)s1 | 5.50 | –
41 | CC(C)(C)c1ccc(C(=O)Nc2ccc(Oc3cccnc3)nc2)cc1 | 5.94 | –
42 | O=C(COc1ccc(C(=O)c2ccccc2)cc1)Nc1cccnc1 | 5.91 | –
43 | COc1cc(CSc2nnnn2-c2ccc(C)cc2)cc(OC)c1OC | 5.46 | –
44 | O=C(Nc1nc(-c2ccc(Cl)cc2Cl)cs1)c1ccc(OCC2CCCO2)cc1 (configuration not stated) | 5.96 | –
45 | COc1cc2c(cc1OC)[C@@H]1C(=O)c3ccc4c(c3O[C@@H]1CO2)C[C@H](C(C)C)O4 | 7.91 | –
46 | CC(C)(C)c1ccc(-n2ncc3c2CCCC3NC(=O)C2(C(N)=O)CC2)cc1 (configuration not stated) | 5.70 | –
47 | Cc1nn(C)c(Nc2ccc(Br)cc2)c1Br | 5.38 | –
48 | O=S(=O)(NCc1ccncc1)c1ccc(Br)s1 | 5.75 | –
49 | CCCCc1ccc(NC(=O)c2ccc(N(C)S(C)(=O)=O)cc2)cc1 | 6.16 | –
50 | Nc1cc(-c2ccc(Br)cc2)nn1Cc1ccccc1 | 5.44 | –
51 | NC(=O)c1nnn(Cc2cc(Cl)c(C(=O)c3ccc(Cl)cc3)c(Cl)c2)c1N | 5.46 | –
52 | Cc1cc(C)nc(SCC(=O)Nc2ccnc3ccccc23)n1 | 5.93 | –
53 | CC(C)(C)NC(=O)COC(=O)c1snc(C(=O)NC2CCCCC2)c1N | 5.50 | –
54 | CCN(CC)S(=O)(=O)c1cc(NC(=O)CNc2cccc(S(=O)(=O)N3CCOCC3)c2)ccc1C | 5.45 | –
55 | Cc1nn(C)c(C)c1CN(C)S(=O)(=O)c1ccc2ccccc2c1 | 5.91 | –
56 | CC1(C)CC2CC(C)(CN2S(=O)(=O)c2ccc(C(=O)Nc3cccc(S(=O)(=O)N4CCOCC4)c3)cc2)C1 (configuration not stated) | 5.68 | –
57 | CCCOc1ccc(CSc2nc3ccccc3[nH]2)cc1 | 5.92 | –
